# Laboratory results from PubChem BioAssay (NCI).
#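 The compound was tested at five concentrations on cells cultured in 96-well plates, with a 48-hour exposure period. GI50 is the concentration that inhibits growth by half. TGI denotes the concentration required for complete inhibition of growth.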
# Experiments:
# Assay in all cases: growth of human tumour cells (NCI), 48 h
# CAKI-1 renal = tested on: CAKI-1 renal
# ACHN renal = tested on: ACHN renal
# A549 NSCLC = tested on: A549 NSCLC
# RPMI-8226 leukemia = tested on: RPMI-8226 leukemia
# SW-620 colon = tested on: SW-620 colon
# BT-549 breast = tested on: BT-549 breast
# HCT-116 colon = tested on: HCT-116 colon
# MALME-3M melanoma = tested on: MALME-3M melanoma
# MCF7 breast = tested on: MCF7 breast
# OVCAR-3 ovarian = tested on: OVCAR-3 ovarian
# PC-3 prostate = tested on: PC-3 prostate
# SF-539 CNS = tested on: SF-539 CNS
# KM12 colon = tested on: KM12 colon
# RXF 393 renal = tested on: RXF 393 renal
# A498 renal = tested on: A498 renal
# SK-MEL-28 melanoma = tested on: SK-MEL-28 melanoma
# UACC-257 melanoma = tested on: UACC-257 melanoma
# UACC-62 melanoma = tested on: UACC-62 melanoma
# M14 melanoma = tested on: M14 melanoma
# SF-295 CNS = tested on: SF-295 CNS
# HOP-62 NSCLC = tested on: HOP-62 NSCLC
# HS 578T breast = tested on: HS 578T breast
# MDA-MB-231 breast = tested on: MDA-MB-231 breast
# MDA-MB-435 = tested on: MDA-MB-435
# K-562 leukemia = tested on: K-562 leukemia
# OVCAR-4 ovarian = tested on: OVCAR-4 ovarian
# U251 CNS = tested on: U251 CNS
# OVCAR-8 ovarian = tested on: OVCAR-8 ovarian
# CCRF-CEM leukemia = tested on: CCRF-CEM leukemia
# SN12C renal = tested on: SN12C renal
# NCI-H23 lung = tested on: NCI-H23 lung
# MOLT-4 leukemia = tested on: MOLT-4 leukemia
# DU-145 prostate = tested on: DU-145 prostate
# SK-MEL-5 melanoma = tested on: SK-MEL-5 melanoma
# NCI/ADR-RES ovarian = tested on: NCI/ADR-RES ovarian
# HL-60(TB) leukemia = tested on: HL-60(TB) leukemia
# IGROV1 ovarian = tested on: IGROV1 ovarian
# NCI-H226 lung = tested on: NCI-H226 lung
# TK-10 renal = tested on: TK-10 renal
# SK-MEL-2 melanoma = tested on: SK-MEL-2 melanoma
# EKVX NSCLC = tested on: EKVX NSCLC
# COLO 205 colon = tested on: COLO 205 colon
# SR leukemia = tested on: SR leukemia
# SF-268 CNS = tested on: SF-268 CNS
# HT29 colon = tested on: HT29 colon
# SK-OV-3 ovarian = tested on: SK-OV-3 ovarian
# UO-31 renal = tested on: UO-31 renal
# HCC-2998 colon = tested on: HCC-2998 colon
# 786-0 renal = tested on: 786-0 renal
# T-47D breast = tested on: T-47D breast
# NCI-H522 lung = tested on: NCI-H522 lung
# OVCAR-5 ovarian = tested on: OVCAR-5 ovarian
# HCT-15 colon = tested on: HCT-15 colon
# SNB-75 CNS = tested on: SNB-75 CNS
# SNB-19 CNS = tested on: SNB-19 CNS
# HOP-92 NSCLC = tested on: HOP-92 NSCLC
# LOX IMVI melanoma = tested on: LOX IMVI melanoma
# NCI-H460 lung = tested on: NCI-H460 lung
smiles,measurement,setting,value
CC(=O)c1c(C)[nH]c(-c2nc3ccc(N4CCN(C)CC4)cc3[nH]2)c1-c1ccc(OCC2CCOCC2)cc1,GI50,CAKI-1 renal,0.326 µM
same,TGI,CAKI-1 renal,12.6 µM
same,GI50,ACHN renal,0.777 µM
same,TGI,ACHN renal,12.4 µM
same,GI50,A549 NSCLC,0.714 µM
same,TGI,A549 NSCLC,17.8 µM
same,GI50,RPMI-8226 leukemia,0.251 µM
same,TGI,RPMI-8226 leukemia,1.42 µM
same,GI50,SW-620 colon,1.68 µM
same,TGI,SW-620 colon,18 µM
same,GI50,BT-549 breast,3.4 µM
same,TGI,BT-549 breast,18 µM
same,GI50,HCT-116 colon,0.714 µM
same,TGI,HCT-116 colon,12.7 µM
same,GI50,MALME-3M melanoma,0.72 µM
same,TGI,MALME-3M melanoma,2.57 µM
same,GI50,MCF7 breast,0.218 µM
same,TGI,MCF7 breast,11.6 µM
same,GI50,OVCAR-3 ovarian,0.889 µM
same,TGI,OVCAR-3 ovarian,14 µM
same,GI50,PC-3 prostate,0.693 µM
same,TGI,PC-3 prostate,19.3 µM
same,GI50,SF-539 CNS,1.24 µM
same,TGI,SF-539 CNS,12.3 µM
same,GI50,KM12 colon,0.924 µM
same,TGI,KM12 colon,14.6 µM
same,GI50,RXF 393 renal,0.696 µM
same,TGI,RXF 393 renal,2.83 µM
same,GI50,A498 renal,0.345 µM
same,TGI,A498 renal,2.2 µM
same,GI50,SK-MEL-28 melanoma,1.62 µM
same,TGI,SK-MEL-28 melanoma,17 µM
same,GI50,UACC-257 melanoma,0.789 µM
same,TGI,UACC-257 melanoma,4.42 µM
same,GI50,UACC-62 melanoma,0.172 µM
same,TGI,UACC-62 melanoma,11.2 µM
same,GI50,M14 melanoma,0.63 µM
same,TGI,M14 melanoma,4.64 µM
same,GI50,SF-295 CNS,2.67 µM
same,TGI,SF-295 CNS,15.3 µM
same,GI50,HOP-62 NSCLC,0.524 µM
same,TGI,HOP-62 NSCLC,14.7 µM
same,GI50,HS 578T breast,0.346 µM
same,TGI,HS 578T breast,8.71 µM
same,GI50,MDA-MB-231 breast,0.946 µM
same,TGI,MDA-MB-231 breast,16.9 µM
same,GI50,MDA-MB-435,0.477 µM
same,TGI,MDA-MB-435,12.2 µM
same,GI50,K-562 leukemia,0.37 µM
same,TGI,K-562 leukemia,9.08 µM
same,GI50,OVCAR-4 ovarian,0.803 µM
same,TGI,OVCAR-4 ovarian,32.9 µM
same,GI50,U251 CNS,2.1 µM
same,TGI,U251 CNS,17.5 µM
same,GI50,OVCAR-8 ovarian,1.5 µM
same,TGI,OVCAR-8 ovarian,27.9 µM
same,GI50,CCRF-CEM leukemia,0.654 µM
same,TGI,CCRF-CEM leukemia,> 47.1 µM
same,GI50,SN12C renal,1.31 µM
same,TGI,SN12C renal,17.4 µM
same,GI50,NCI-H23 lung,1.32 µM
same,TGI,NCI-H23 lung,18.3 µM
same,GI50,MOLT-4 leukemia,1.63 µM
same,TGI,MOLT-4 leukemia,20.6 µM
same,GI50,DU-145 prostate,5.09 µM
same,TGI,DU-145 prostate,24.8 µM
same,GI50,SK-MEL-5 melanoma,0.966 µM
same,TGI,SK-MEL-5 melanoma,3.17 µM
same,GI50,NCI/ADR-RES ovarian,1.02 µM
same,TGI,NCI/ADR-RES ovarian,30.5 µM
same,GI50,HL-60(TB) leukemia,0.129 µM
same,TGI,HL-60(TB) leukemia,0.785 µM
same,GI50,IGROV1 ovarian,0.854 µM
same,TGI,IGROV1 ovarian,12.8 µM
same,GI50,NCI-H226 lung,1.87 µM
same,TGI,NCI-H226 lung,21.2 µM
same,GI50,TK-10 renal,0.306 µM
same,TGI,TK-10 renal,16.8 µM
same,GI50,SK-MEL-2 melanoma,2 µM
same,TGI,SK-MEL-2 melanoma,16.5 µM
same,GI50,EKVX NSCLC,8.36 µM
same,TGI,EKVX NSCLC,37.2 µM
same,GI50,COLO 205 colon,0.334 µM
same,TGI,COLO 205 colon,4.65 µM
same,GI50,SR leukemia,0.685 µM
same,TGI,SR leukemia,5.73 µM
same,GI50,SF-268 CNS,3.52 µM
same,TGI,SF-268 CNS,20.1 µM
same,GI50,HT29 colon,0.302 µM
same,TGI,HT29 colon,20.5 µM
same,GI50,SK-OV-3 ovarian,0.377 µM
same,TGI,SK-OV-3 ovarian,11.1 µM
same,GI50,UO-31 renal,0.207 µM
same,TGI,UO-31 renal,6.81 µM
same,GI50,HCC-2998 colon,0.766 µM
same,TGI,HCC-2998 colon,3.31 µM
same,GI50,786-0 renal,1.31 µM
same,TGI,786-0 renal,14.5 µM
same,GI50,T-47D breast,0.445 µM
same,TGI,T-47D breast,20.6 µM
same,GI50,NCI-H522 lung,0.548 µM
same,TGI,NCI-H522 lung,13.8 µM
same,GI50,OVCAR-5 ovarian,1.62 µM
same,TGI,OVCAR-5 ovarian,32.2 µM
same,GI50,HCT-15 colon,0.456 µM
same,TGI,HCT-15 colon,5.8 µM
same,GI50,SNB-75 CNS,0.0365 µM
same,TGI,SNB-75 CNS,0.887 µM
same,GI50,SNB-19 CNS,2.2 µM
same,TGI,SNB-19 CNS,25.1 µM
same,GI50,HOP-92 NSCLC,0.11 µM
same,TGI,HOP-92 NSCLC,2.79 µM
same,GI50,LOX IMVI melanoma,0.318 µM
same,TGI,LOX IMVI melanoma,1.45 µM
same,GI50,NCI-H460 lung,2.39 µM
same,TGI,NCI-H460 lung,19.4 µM
